Measured values: patent publication US9006221B2, “Method of modulating ship activity” (H. Lee Moffitt Cancer Center and Reserach Institute, Inc., priority 2008, dated 2015)

How the values were obtained:
human PBMC = test: Human one-way MLR with pre-treated PBMC stimulators; type: cell-based; settings: stimulator PBMC pre-treated 24 hr with 9.4 μM
From the text: FACS quantitation of Mac1^+Gr1^+ MIR cells in spleen (A) and lymph node (B) of C57BL/6 mice treated with the SHIP1 inhibitor (Compound), vehicle (Vehicle) or unmanipulated controls (Normal) as indicated. (C) Mixed-Leukocyte-Reactions (MLR) where splenocytes from SHIP1 inhibitor-treated C57BL6 (H2b) mice were used as stimulators for BALB/C (H2d) responders. In parallel splenocytes from either unmanipulated (Normal) or Vehicle treated C57BL6 mice were used as positive controls for the MLR. […] (D) Human PBMC were pre-treated for 24 hr with 3α-aminocholestane (Compound) or vehicle, irradiated and then used as stimulators for untreated PBMC from a different donor in a one-way MLR. […] Absolute peripheral blood granulocyte numbers were determined by an automated blood cell analyzer. […]
Mixed leukocyte reactions (MLR): Following RBC lysis, irradiated (2000 Rads) BL6 splenocytes (stimulators) at 8×10^5 cells/well were combined with BALB/c splenocytes (responders) at 4×10^5 cells/well in a one-way MLR assay. […] Incorporated [3H]thymidine was quantitated using a Packard TopCount NXT. Specific [3H]thymidine incorporation into genomic DNA was calculated as the average of the mean (±SEM) of sextuplicate wells. […]

KG-1 AML cells = test: MTT cell viability assay, KG1; type: cell-based, human; settings: KG-1, expresses SHIP1, 36 hours
Experimental: (A) SHIP1 expression in KG1 and MG63 cells was determined by Western blotting (top). Membranes were reprobed with antibodies against b-actin to confirm equal loading (lower panel). One representative blot of 2 individual experiments is shown. (B) KG1 and MG63 cells were plated in duplicate in 96 well plates, and treated for 36 hours with increasing concentrations of the 3α-aminocholestane. Cell viability was assessed by MTT assay. Results represent the mean of three individual experiments. (C) KG1 cells were treated with increasing concentrations of 3α-aminocholestane for 36 hours and hallmarks of apoptosis were identified in cell lysates by Western Blot analysis. […] (D) KG1 cells were treated with increasing concentrations of 3α-aminocholestane, and the percentage of AnnexinV and PI positive cells was determined by FACS analysis. […]
Cell viability assay: Cells were treated in duplicate for 36 hours with increasing concentrations of 3α-aminocholestane or vehicle. […] Formed crystals were dissolved in dimethyl sulfoxide and optical density (OD) was measured at 570 nm. The OD of compound treated cells was divided by the OD of their vehicle control, and the viability was expressed as a percentage of untreated cells. Results are expressed as mean±SEM of three individual experiments.

CC(C)CCC[C@@H](C)[C@H]1CC[C@H]2[C@@H]3CC[C@H]4C[C@H](N)CC[C@]4(C)[C@H]3CC[C@]12C [NSC23922, (3R,5S,8R,9S,10S,13R,14S,17R)-10,13-dimethyl-17-[(2R)-6-methylheptan-2-yl]-2,3,4,5,6,7,8,9,11,12,14,15,16,17-tetradecahydro-1H-cyclopenta[a]phenanthren-3-amine]
ability of pre-treated human PBMC to prime allogeneic responses by T cells from an unrelated donor (human PBMC): significantly reduces | growth and survival of cells (MTT viability) (KG-1 AML cells): decreases the growth and survival
